Source: ChEMBL document CHEMBL1137480, “Synthesis and structure-activity relationship of 7-(substituted)-aminomethyl-4-quinolone-3-carboxylic acid derivatives” (2007)
In brackets after ≈: the same amount, converted by molar mass.

How the values were obtained:
Format in all cases: functional
Shigella boydii = test: Antibacterial activity against Shigella boydii 51313 after 24 hrs by agar dilution method
[1] = system: Staphylococcus epidermidis; test: Antibacterial activity against Staphylococcus epidermidis 26069 after 24 hrs by agar dilution method
Klebsiella pneumoniae = test: Antibacterial activity against Klebsiella pneumoniae 46101 after 24 hrs by agar dilution method
Salmonella = test: Antibacterial activity against […] 48107 after 24 hrs by agar dilution method
Staphylococcus aureus = test: Antibacterial activity against Staphylococcus aureus 26003 after 24 hrs by agar dilution method
Streptococcus pneumoniae = test: Antibacterial activity against Streptococcus pneumoniae 31002 after 24 hrs by agar dilution method

Question: Which MIC (Shigella boydii) does the source give for `CN[C@H](CC(C)C)C(=O)N[C@H]1C(=O)N[C@@H](CC(N)=O)C(=O)N[C@H]2C(=O)N[C@H]3C(=O)N[C@H](C(=O)N[C@H](C(=O)O)c4cc(O)cc(O)c4-c4cc3ccc4O)[C@H](O)c3ccc(c(Cl)c3)Oc3cc2cc(c3O[C@@H]2O[C@H](CO)[C@@H](O)[C@H](O)[C@H]2O[C@H]2C[C@](C)(N)[C@H](O)[C@H](C)O2)Oc2ccc(cc2Cl)[C@H]1O` [VANCOMYCIN] here?
Answer: > 6.25 µg/mL

Question: What about the MIC [1] of the same compound?
Answer: 0.78 µg/mL (≈ 0.538 µM)

Question: And the MIC (Klebsiella pneumoniae)?
Answer: > 6.25 µg/mL

Question: What about the MIC (Salmonella) of the same compound?
Answer: > 6.25 µg/mL

Question: And the MIC (Staphylococcus aureus)?
Answer: 0.39 µg/mL (≈ 0.269 µM)

Question: And the MIC (Streptococcus pneumoniae)?
Answer: 0.098 µg/mL (≈ 0.0676 µM)
